Broadly, the AC50 is the midpoint of the concentration-response curve, whichever way the signal moves. The term IC50 denotes the point on the concentration scale where inhibition reaches its midpoint.

Holding throughout (type): cell-based
The test system of test [1] is HTT mRNA. Nature of the test: RT-qPCR splicing assay monitoring HTT canonical (CJ) and alternative (AJ) junction mRNA in A673 or K562 cells. The conditions noted are these: 24 hours compound treatment, top dose 10 uM. As to the method:
(§1) Compounds described herein were used to modulate RNA transcript abundance in cells. The expression of a target mRNA was measured by detecting the formation of an exon-exon junction in the canonical transcript (CJ). A compound mediated exon-inclusion event was detected by observing an increase in formation of a new junction with an alternative exon (AJ). Real-time qPCR assays were used to detect these splicing switches and interrogate the potency of various compounds towards different target genes. A high-throughput real time quantitative PCR (RT-qPCR) assay was developed to measure these two isoforms of the mRNA (CJ and AJ) for an exemplary gene, HTT, together with a control housekeeping gene, GAPDH or GUSB or PPIA, used for normalization. Briefly, the A673 or K562 cell line was treated with various compounds described herein (e.g., compounds of Formula (I)). After treatment, the levels of the HTT mRNA targets were determined from each sample of cell lysate by cDNA synthesis followed by qPCR.
• Cells-to-CT 1-step kit: ThermoFisher A25602, Cells-to-CT lysis reagent: ThermoFisher 4391851C, TaqMan™ Fast Virus 1-Step Master Mix: ThermoFisher 4444436 • GAPDH: VIC-PL, ThermoFisher 4326317E (Assay: Hs99999905_m1)—used for K562/suspension cell lines • GUSB: VIC-PL, ThermoFisher 4326320E (Assay: Hs99999908_m1)—used for K562/suspension cell lines • PPIA: VIC-PL, ThermoFisher 4326316E (Assay: Hs99999904_m1)—used for A673/adherent cell lines
(§2) The A673 cell line was cultured in DMEM with 10% FBS. Cells were diluted with full growth media and plated in a 96-well plate (15,000 cells in 100 ul media per well). The plate was incubated at 37° C. with 5% CO2 for 24 hours to allow cells to adhere. An 11-point 3-fold serial dilution of the compounds was made in DMSO then diluted in media in an intermediate plate. Compounds were transferred from the intermediate plate to the cell plate with the top dose at a final concentration of 10 uM in the well. Final DMSO concentration was kept at or below 0.25%. The cell plate was returned to the incubator at 37° C. with 5% CO2 for an additional 24 hours.
(§3) The K562 cell line was cultured in IMDM with 10% FBS. For K562, cells were diluted with full growth media and plated in either a 96-well plate (50,000 cells in 50 uL media per well) or a 384-well plate (8,000-40,000 cells in 45 uL media per well). An 11-point 3-fold serial dilution of the compounds were made in DMSO then diluted in media in an intermediate plate. Compound was transferred from the intermediate plate to the cell plate with the top dose at a final concentration of 10 uM in the well. Final DMSO concentration was kept at or below 0.25%. Final volume was 100 uL for 96-well plate and 50 uL for 384-well plate. The cell plate was then placed in an incubator at 37° C. with 5% CO2 for 24 hours.
(§4) The cells were then gently washed with 50 uL-100 uL cold PBS before proceeding to addition of lysis buffer. 30 uL-50 uL of room temperature lysis buffer with DNAse I (and optionally RNAsin) was added to each well. Cells were shaken/mixed thoroughly at room temperature for 5-10 minutes for lysis to take place and then 3 uL-5 uL of room temperature stop solution was added and wells were shaken/mixed again. After 2-5 minutes, the cell lysate plate was transferred to ice for RT-qPCR reaction setup. The lysates could also be frozen at −80° C. for later use.
In some cases, a direct lysis buffer was used. An appropriate volume of 3×lysis buffer (10 mM Tris, 150 mM NaCl, 1.5%-2.5% Igepal and 0.1-1 U/uL RNAsin, pH 7.4) was directly added to either K562 or A673 cells in media and mixed by pipetting 3 times. The plates were then incubated at room temperature with shaking/rocking for 20-50 minutes to allow for lysis to take place. After this time, the cell lysate plate was transferred to ice to set up for the RT-qPCR reactions. The lysates could also be frozen at −80° C. for later use. […]
(In general: Quantitative PCR measures a nucleic acid by following its amplification.)

The subject of test [2] is Target C. Nature of the test: Gene panel canonical junction RT-qPCR assay: Target C. The settings on record: read-out: Target C (IC50, decrease in CJ mRNA levels). The method, then:
as §1, §2, §3, §4
(§5) In some cases, a direct lysis buffer was used. An appropriate volume of 3×lysis buffer (10 mM Tris, 150 mM NaCl, 1.5%-2.5% Igepal and 0.1-1 U/uL RNAsin, pH 7.4) was directly added to either K562 or A673 cells in media and mixed by pipetting 3 times. The plates were then incubated at room temperature with shaking/rocking for 20-50 minutes to allow for lysis to take place. After this time, the cell lysate plate was transferred to ice to set up for the RT-qPCR reactions. The lysates could also be frozen at −80° C. for later use.
(§6) To set up 10 uL RT-qPCR reactions, cell lysates were transferred to 384-well qPCR plates containing the master mix according to the table below. The plates were sealed, gently vortexed, and spun down before the run. The volumes were adjusted accordingly in some instances where the reaction was carried in 20 uL. The table below summarizes the components of the RT-qPCR reactions:
(§7) The RT-qPCR reaction was performed using a QuantStudio (ThermoFisher) under the following fast cycling conditions. […]

The test system of test [3] is SMN2. Kind of test: Gene panel canonical junction RT-qPCR assay: SMN2. The settings on record: read-out: SMN2 (IC50, decrease in CJ mRNA levels). As to the method:
as §1, §2, §3, §4, §5, §6, §7

Test [4] relates to HTT. Nature of the test: Gene panel canonical junction RT-qPCR assay: HTT. The settings on record: read-out: HTT (IC50, decrease in CJ mRNA levels). As to the method: as §1, §2, §3, §4, §5, §6, §7
Where [5] appears, read: decrease in CJ mRNA, read-out: HTT CJ AC50.
The mark [6] stands for this setting: increase in AJ mRNA, read-out: HTT AJ AC50.

Like-named read-outs stand apart in the source and are kept apart here.

For `CN(c1ccc(-c2ccc(-n3cccn3)c(=O)[nH]2)nn1)[C@@H]1C[C@H]2CC[C@@H](C1)N2` [Compound 130, 6-[6-[(1R,3S,5S)-8-azabicyclo[3.2.1]octan-3-yl(methyl)amino]pyridazin-3-yl]-3-(pyrazol-1-yl)-1H-pyridin-2-one], the AC50 fell in the range of 100 to 1000 nM in test [1] (setting [5]) and 1000 to 10000 nM in test [1] (setting [6]). Also, the half-inhibitory concentration (IC50) is less than 100 nM in test [2], 1000 to 10000 nM in test [3] and 100 to 1000 nM in test [4].

`COc1nc(-c2ccc(N(C)[C@@H]3C[C@H]4CC[C@@H](C3)N4)nn2)ccc1-n1cccn1` [Compound 134, (1R,3S,5S)—N-[6-[6-methoxy-5-(pyrazol-1-yl)pyridin-2-yl]pyridazin-3-yl]-N-methyl-8-azabicyclo[3.2.1]octan-3-amine]: the concentration at half-maximal activity (AC50) in test [1] (setting [5]) and in test [1] (setting [6]) was 100 to 1000 nM throughout. The concentration for half-maximal inhibition (IC50) in test [2] was more than 10000 nM; in test [3], 100 to 1000 nM; in test [4], 100 to 1000 nM.

Take `CN(c1ccc(-c2ccc(-c3cn[nH]c3)cn2)nn1)[C@@H]1C[C@H]2CC[C@@H](C1)N2` [Compound 217]: the AC50 in test [1] (setting [5]) and in test [1] (setting [6]) was 100 to 1000 nM each time. Moreover, the IC50 was 1000 to 10000 nM in test [2], more than 10000 nM in test [3] and 100 to 1000 nM in test [4].

Take `COc1nc(-c2ccc(N(C)[C@@H]3C[C@H]4CC[C@@H](C3)N4)nn2)ccc1-c1cn[nH]c1` [Compound 133, (1R,3S,5S)—N-[6-[6-methoxy-5-(1H-pyrazol-4-yl)pyridin-2-yl]pyridazin-3-yl]-N-methyl-8-azabicyclo[3.2.1]octan-3-amine]: the AC50 in test [1] (setting [5]) was less than 100 nM; in test [1] (setting [6]), 100 to 1000 nM. Also, the IC50 in test [2], in test [3] and in test [4] was less than 100 nM each time.

(Values after patent US20230365526A1, “PYRIDAZINE DERIVATIVES FOR MODULATING NUCLEIC ACID SPLICING” (REMIX THERAPEUTICS INC., priority 2020, published 2023).)
